Patent US20250199015A1, “CYCLIN-DEPENDENT KINASE 2 INHIBITORS FOR MEDICAL TREATMENT” (INCYCLIX BIO, LLC, priority 2022, published 2025)
Entries after “also recorded” stand apart in the source; their conditions may differ.

Tests used:
[1] = biological target: T1, BCRP (Homo sapiens, UniProt Q9UNQ0); assay: ABC transporter inhibition, inside-out membrane vesicles; type: in vitro ADME
T1 construct: expressed in transfected cells; inside-out membrane vesicles
Procedure: The reaction was initiated with the addition of ATP or AMP to the solution and following the incubation time, the reaction was stopped by the addition of 200 μL of ice-cold washing buffer and immediate filtration via glass fiber filters mounted to a 96-well plate (filter plate). The filters were washed, dried, and the amount of substrate inside the filtered vesicles was determined by liquid scintillation counting. E3S (1 μM; Sigma-Aldrich E0251) for BCRP was used as positive control substrates.

[2] = system: T47D parental and therapy-resistant (LYR, FR, LYFR, PDR) cells; assay: Proliferation (DAPI cell count, 2 doubling times) in parental and therapy-resistant cells; type: cell-based, human; conditions: with the corresponding resistant drug fixed
Procedure: (§1) The doubling time of each cell line was calculated and plates were removed from incubator after 2 doubling times. Cells were fixed and stained with DAPI and imaged with automated counting of cell number.

[3] = system: MCF7 parental and therapy-resistant (LYR, FR, LYFR, PDR) cells; assay: as above; type: cell-based, human; conditions: with the corresponding resistant drug fixed
Procedure: as §1

[4] = system: OVCAR-3 cells; assay: CellTiter Glo cell proliferation assay; type: cell-based, human; conditions: six days
Procedure: Plates were returned to the incubator for six additional days. On day six post dosing, plates were removed and treated with CellTiter Glo reagent following manufacturer's specifications. Plates were incubated 45 minutes at room temperature and run on Biotek luminometer with 1 sec/well detection. Results were converted to Microsoft Excel and transferred to Graphpad Prism for analysis. […] These cell types are distinguished by either gained of cyclin E1 expression or activation (Kuramochi) or intrinsic amplification of cyclin E1 (OVCAR-3, COV318).
In a similar manner, OVCAR-3 cells were grown in RPMI-1640, 1× Glutamax, 10% FBS and 1×ITS at 37° C., 5% CO2. Cells were plated at 500 cells per well in white wall/clear bottom plates and incubated overnight. […] Plates returned to incubator for six additional days. On day six post dosing, plates were removed and treated with CellTiter Glo reagent following manufacturer's specifications. Plates were incubated 45 minutes at room temperature and run on Biotek luminometer with 1 sec/well detection. Results were converted to Microsoft Excel and transferred to GraphPad Prism for analysis.

[5] = GLP 28-day oral toxicity and toxicokinetics study; type: in vivo, Sprague Dawley rats; conditions: for AUC0-24 / AUC(0-t) / Cmax / Tmax / half-life: po; for half-life: t1/2
Procedure: One-hundred and sixty (80 per sex) Sprague Dawley rats were randomly assigned to groups and dosed once daily via oral gavage for 28 consecutive days.
Nominal dose values and sampling times were used for calculations. Any concentration reported as BLQ (LLOQ<1.0 ng/ml) was set equal to zero. Toxicokinetic analyses included Cmax, Tmax, AUC0-24, t1/2, RA Cmax, and RA AUC0-24.
Based on the absence of toxicity, the 28-day maximum tolerated dose (MTD) (also the no observed adverse effect level [NOAEL]) was 1000 mg/kg/day, the highest dose level tested. […] Respiratory function was also not affected by Compound I at any dose level.

[6] = system: COV318 cells; assay: Cell cycle by EdU flow cytometry; type: cell-based, human; conditions: 10 nM to 10 μM, 24 hours
Procedure: Cells were plated at 100,000 cells/well in Corning 6 cm tissue culture treated plates. […] Cells were collected and fixed in 1% paraformaldehyde. Cells were incubated with Alexa488 azide dye as described by Thermo Scientific. Cells were then incubated with […]-violet and RNase. Cells were analyzed on a BD Celesta and data compiled using FloJo and GraphPad.

[7] = system: pRb, cyclin E in FUOV-1 cells; assay: Western blot pRb and cell cycle proteins; type: cell-based, human; conditions: 30-1000 nM, 24 hours
Procedure: An independent human ovarian carcinoma cell line, FUOV-1, was grown in DMEM/F12/1× Glutamax/10% fetal bovine serum and plated at 300,000 cells/well in Corning 6 well tissue culture treated plates. Cells were incubated at […] for 24 hours prior to addition of 2 replicates of 0.1% DMSO control and 1 replicate for each treatment. […] Cells were collected by washing each well twice with cold PBS, then scraping cells in the presence of 150 μL cold RIPA with protease and phosphatase inhibitors. Lysates were clarified by centrifugation at 14,000×g for 10 min at 4° C. and supernatants transferred to clean tubes. A BCA assay was performed to determine the protein concentration of each lysate. A total of 30 μg of protein was mixed with sample buffer and reducing agent before being run on a 4-12% SDS-PAGE. Protein was transferred to a nitrocellulose membrane and blocked with LI-COR blocking buffer for 1 hour. Membranes were incubated overnight in primary antibody at 4° C. Following 3 washes with TBS-T, membranes were incubated for 45 minutes in LI-COR secondary antibodies. Following 2 washes in TBS-T, and one TBS wash, membranes were scanned using a LI-COR OdysseyCLx. Image studio was used for image analysis.

[8] = female, Sprague Dawley, rat, in vivo, 100 mg/kg/day
[9] = female, Sprague Dawley, rat, in vivo, 300 mg/kg/day
[10] = female, Sprague Dawley, rat, in vivo, 1000 mg/kg/day
[11] = male, Sprague Dawley, rat, in vivo, 100 mg/kg/day
[12] = male, Sprague Dawley, rat, in vivo, 300 mg/kg/day
[13] = male, Sprague Dawley, rat, in vivo, 1000 mg/kg/day

T1 sequence (Q9UNQ0 whole entry): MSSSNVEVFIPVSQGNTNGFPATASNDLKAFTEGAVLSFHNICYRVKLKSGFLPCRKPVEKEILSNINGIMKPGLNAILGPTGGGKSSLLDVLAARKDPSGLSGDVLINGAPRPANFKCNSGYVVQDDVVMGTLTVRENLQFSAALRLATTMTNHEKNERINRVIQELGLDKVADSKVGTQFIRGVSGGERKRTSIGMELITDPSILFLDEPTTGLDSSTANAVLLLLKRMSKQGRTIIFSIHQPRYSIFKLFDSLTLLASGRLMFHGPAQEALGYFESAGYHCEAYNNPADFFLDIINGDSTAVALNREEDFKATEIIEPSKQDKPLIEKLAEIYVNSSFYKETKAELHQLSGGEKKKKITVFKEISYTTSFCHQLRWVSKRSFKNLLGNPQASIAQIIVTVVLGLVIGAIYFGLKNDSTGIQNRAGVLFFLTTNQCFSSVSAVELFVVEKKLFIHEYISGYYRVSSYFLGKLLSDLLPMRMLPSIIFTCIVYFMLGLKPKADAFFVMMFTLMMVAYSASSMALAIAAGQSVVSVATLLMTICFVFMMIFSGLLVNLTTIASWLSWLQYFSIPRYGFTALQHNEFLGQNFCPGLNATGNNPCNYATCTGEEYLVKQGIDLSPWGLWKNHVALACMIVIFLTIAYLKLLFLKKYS

NS(=O)(=O)c1ccc(Nc2ncc3cc4n(c3n2)C2(CCCCC2)C(=O)NN4)cc1 [Compound I]
IC50 ([1]; BCRP, inside-out membrane vesicles): 422 nM
IC50 ([1]; human, inside-out membrane vesicles from cells overexpressing BCRP, probe E3S (1 μM)): 422 nM
cellular proliferation in therapy-resistant cells [2]: low, nanomolar IC50 values; also recorded: dose-dependent decrease in cellular proliferation
cellular proliferation in therapy-resistant cells [3]: low, nanomolar IC50 values; also recorded: dose-dependent decrease in cellular proliferation
cell viability compared with palbociclib ([4]; CCNE1 amplified): potently decreases cell viability
IC50 ([4]; Homo sapiens, OVCAR-3, 144 h): 49 nM
tolerability ([5]; PO, up to 28 days, up to 1000 mg/kg/day): generally well tolerated; also recorded: well tolerated in rats without adverse effects of any sort
mean body weight and body weight gain ([5]; any dose level): did not affect
MTD at 28 days ([5]; both sexes, Sprague Dawley, rat, in vivo, oral, highest dose level tested, read-out: 28-day maximum tolerated dose (MTD) (also NOAEL)): 1000 mg/kg/day
AUC0-24 [5, 8]: 7570 ng·h/mL
AUC(0-t) ([5]; female, Sprague Dawley, rat, in vivo, 100 mg/kg/day, AUC0-24): 9580 ng·h/mL
Cmax ([5]; female, Sprague Dawley, rat, in vivo, 100 mg/kg/day, Cmax): 3330 ng/mL
Tmax [5, 8]: 0.25 h
half-life [5, 8]: 3.93 h
AUC0-24 [5, 9]: 11600 ng·h/mL
AUC(0-t) ([5]; female, Sprague Dawley, rat, in vivo, 300 mg/kg/day, AUC0-24): 11400 ng·h/mL
Cmax ([5]; female, Sprague Dawley, rat, in vivo, 300 mg/kg/day, Cmax): 3070 ng/mL
Tmax [5, 9]: 0.5 h
half-life [5, 9]: 3.98 h
AUC0-24 [5, 10]: 12700 ng·h/mL
AUC(0-t) ([5]; female, Sprague Dawley, rat, in vivo, 1000 mg/kg/day, AUC0-24): 12600 ng·h/mL
Tmax [5, 10]: 0.5 h
AUC(0-t) ([5]; female, Sprague Dawley, rat, in vivo, 1000 mg/kg/day, plasma AUC0-24): 12700 ng·h/mL
Cmax ([5]; female, Sprague Dawley, rat, in vivo, 1000 mg/kg/day, plasma Cmax): 1390 ng/mL
half-life [5, 10]: 5.89 h
AUC0-24 [5, 11]: 8310 ng·h/mL
AUC(0-t) ([5]; male, Sprague Dawley, rat, in vivo, 100 mg/kg/day, AUC0-24): 11000 ng·h/mL
Cmax ([5]; male, Sprague Dawley, rat, in vivo, 100 mg/kg/day, Cmax): 1010 ng/mL
half-life [5, 11]: 3.27 h
AUC0-24 [5, 12]: 9750 ng·h/mL
AUC(0-t) ([5]; male, Sprague Dawley, rat, in vivo, 300 mg/kg/day, AUC0-24): 10700 ng·h/mL
Tmax [5, 12]: 0.5 h
half-life [5, 12]: 5.54 h
AUC0-24 [5, 13]: 8130 ng·h/mL
AUC(0-t) ([5]; male, Sprague Dawley, rat, in vivo, 1000 mg/kg/day, AUC0-24): 11300 ng·h/mL
AUC(0-t) ([5]; male, Sprague Dawley, rat, in vivo, 1000 mg/kg/day, plasma AUC0-24): 8130 ng·h/mL
Cmax ([5]; male, Sprague Dawley, rat, in vivo, 1000 mg/kg/day, plasma Cmax): 647 ng/mL
half-life [5, 13]: 9.35 h
accumulation after 28 days of once-daily dosing ([5]; rat, in vivo): no accumulation
cell cycle distribution with increasing concentrations [6]: exit the S-phase and increasingly occupy the G0-G1 phase
cyclin E amplification [7]: no cyclin E amplification was observed
pRb levels [7]: decreases pRb levels in a dose-dependent manner
